Experimental findings from article PMC7508162 (Frontiers in Pharmacology, 2020) are described below.

The test has as its target T1, human CD39 (Homo sapiens, UniProt P49961).
T1 sequence (P49961 1-510): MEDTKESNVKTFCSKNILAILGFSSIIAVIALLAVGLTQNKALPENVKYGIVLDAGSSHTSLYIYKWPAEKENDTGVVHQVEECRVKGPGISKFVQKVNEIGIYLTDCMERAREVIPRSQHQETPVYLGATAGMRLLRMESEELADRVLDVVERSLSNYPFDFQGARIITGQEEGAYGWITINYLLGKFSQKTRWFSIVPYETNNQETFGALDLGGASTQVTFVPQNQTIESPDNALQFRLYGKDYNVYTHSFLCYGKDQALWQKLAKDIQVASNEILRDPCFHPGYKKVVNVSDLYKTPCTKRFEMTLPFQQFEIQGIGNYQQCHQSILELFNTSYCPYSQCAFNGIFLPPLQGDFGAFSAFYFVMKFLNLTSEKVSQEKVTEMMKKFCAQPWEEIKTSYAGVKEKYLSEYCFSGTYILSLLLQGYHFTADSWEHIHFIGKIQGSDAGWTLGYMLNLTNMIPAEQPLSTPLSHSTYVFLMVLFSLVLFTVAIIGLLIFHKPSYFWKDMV
As to the kind of experiment: Fluorescence capillary electrophoresis assay for CD39. The format is biochemical. Further details: Human umbilical cord membrane preparations (250 ng) natively expressing high amounts of CD39; from tissue; host or cells: human umbilical cord membranes. The conditions noted are these: for Ki: human umbilical cord membrane preparation, n = 3, Cheng-Prusoff; for inhibition at 10 µM: read-out: % inhibition at 10 µM; for IC50 (in words) / CD39 inhibition (in words): human CD39. The method, then:
They were minced and homogenized with a polytron in 95 mM NaCl, 0.1 mM phenylmethylsulfonyl fluoride (PMSF), and 45 mM Tris solution, pH 7.6. […] The pellets were resuspended in 5 mM Tris buffer solution, pH 8.0 and 10% glycerol. All purification steps were performed at 4°C. The preparations were kept at −80°C.
For inhibition screening, three independent experiments were performed. […] The reaction buffer contained 10 mM HEPES, 2 mM CaCl2, 1 mM MgCl2, pH 7.4. The samples were incubated at 37°C for 4 min, and the enzymatic reaction was terminated by heating at 90°C for 5 min. The solution was then diluted 1:20 with reaction buffer to perform separation of nucleotides by capillary electrophoresis (CE) followed by laser-induced fluorescence (LIF) detection. […] Three independent experiments were performed, and curves were calculated by GraphPad Prism 8 software (GraphPad software, San Diego, CA, USA).
Analysis was carried out using a P/ACE MDQ capillary electrophoresis system (Beckman Instruments, Fullerton, CA, USA). The separation was performed in a polyacrylamide-coated capillary [30 cm (10 cm effective length) × 50 µm (id), × 360 µm (od)]. Before each run, the capillary was rinsed with the background electrolyte [50 mM phosphate buffer (pH 6.5)] for 1 min at 30 psi. Samples were electrokinetically injected by applying a voltage of -6 kV for 30 s at the capillary outlet, and the fluorescent nucleotide derivatives were separated by voltage application of -15 kV. […] Data collection and peak area analysis were performed by the P/ACE MDQ software 32 KARAT obtained from Beckman Coulter (Fullerton, CA, USA).

The mark [1] stands for this setting: fluorescent substrate PSB-017621A 0.5 µM, read-out: Ki ± SEM.
[2] abbreviates: ratio of Ki values, fluorescence CE assay.
The mark [3] stands for this setting: screening at 10 µM, fluorescent substrate PSB-017621A 0.5 µM.

“Also recorded” adds a separate entry of the source. Read-outs that look alike come from different tables or passages of the source.

A word on the Ki: it is the dissociation constant of the complex between target and ligand, obtained from inhibition or displacement. For orientation: inhibition means the relative decrease from the control value, in per cent.

As to `CNc1ncnc2c1nc(NC1CC1)n2[C@@H]1O[C@H](COP(=O)(O)OP(=O)(O)C(Br)(Br)P(=O)(O)O)[C@@H](O)[C@H]1O` [Compound 32, (Dibromo((((((2R,3S,4R,5R)-5-(8-(cyclopropylamino)-6-(methylamino)-9H-purin-9-yl)-3,4-di-hydroxytetrahydrofuran-2-yl)methoxy)(hydroxy)-phosphoryl)oxy)(hydroxy)phosphoryl)methyl)phosphonic-Acid], under setting [1], the inhibitory constant (Ki) turned out to be 5.72 ± 0.86 µM. The same measure, in the same setting: the value for `O=P(O)(OC[C@H]1O[C@@H](n2cnc3c(NCCc4ccccc4)ncnc32)[C@H](O)[C@@H]1O)OP(=O)(O)C(Br)(Br)P(=O)(O)O` [Compound 30, (Dibromo((((((2R,3S,4R,5R)-3,4-dihydroxy-5-(6-(phenethylamino)-9H-purin-9-yl)tetrahydrofuran-2-yl)-methoxy)(hydroxy)phosphoryl)oxy)(hydroxy)phosphoryl)-methyl)phosphonic Acid] was 4.82 ± 0.21 µM. In the case of `Nc1ncnc2c1ncn2[C@@H]1O[C@H](COP(=O)(O)CP(=O)(O)O)[C@@H](O)[C@H]1O` [Compound 42, α,β-Methylene-ADP, reference compound], the inhibition at 10 µM is 14%. Moreover, under “Ki ± SEM, fluorescent substrate PSB-017621A 0.5 µM”, the Ki was greater than 10 µM. Consider `CCCN(C)c1ncnc2c1ncn2[C@@H]1O[C@H](COP(=O)(O)OP(=O)(O)C(Br)(Br)P(=O)(O)O)[C@@H](O)[C@H]1O` [Compound 26, (Dibromo((((((2R,3S,4R,5R)-3,4-dihydroxy-5-(6-(methyl-(propyl)amino)-9H-purin-9-yl)tetra-hydrofuran-2-yl)-methoxy)(hydroxy)phosphoryl)oxy)(hydroxy)phosphoryl)-methyl)phosphonic Acid], for which the inhibitory constant (Ki) under setting [1] was 4.04 ± 2.12 µM. For the molecule `Nc1ncnc2c1ncn2[C@@H]1O[C@H](COP(=O)(O)OP(=O)(O)C(Br)(Br)P(=O)(O)O)[C@@H](O)[C@H]1O` [Compound 38, (((((((2R,3S,4R,5R)-5-(6-amino-9H-purin-9-yl)-3,4-dihydroxytetrahydrofuran-2-yl)methoxy)-(hydroxy)-phosphoryl)oxy)(hydroxy)phosphoryl)dibromomethyl)-phosphonic Acid], the “IC50 (in words)” value was “low micromolar range”. Moreover, the Ki under setting [1] turned out to be 5.26 ± 0.22 µM. For the same molecule, under setting [2], the “fold decrease in CD39 potency compared to I” value is listed as “about 5 fold”. `Nc1ncnc2c1ncn2[C@@H]1O[C@H](COP(=O)(O)OP(=O)(O)CP(=O)(O)O)[C@@H](O)[C@H]1O` [Compound 43, β,γ-Methylene-ATP, reference compound]: the “CD39 inhibition (in words)” value was “virtually inactive; also recorded: no significant inhibition”. Moreover, the inhibition constant Ki under setting [1] is greater than 10 µM. Moreover, under setting [3], the inhibition at 10 µM is 23%. For the molecule `CCCN(CCC)c1ncnc2c1ncn2[C@@H]1O[C@H](COP(=O)(O)OP(=O)(O)C(Br)(Br)P(=O)(O)O)[C@@H](O)[C@H]1O` [Compound 27, (Dibromo((((((2R,3S,4R,5R)-5-(6-(dipropylamino)-9H-purin-9-yl)-3,4-dihydroxytetrahydro-furan-2-yl)methoxy)-(hydroxy)phosphoryl)oxy)(hydroxy)phosphoryl)methyl)-phosphonic Acid], the inhibitory constant (Ki) under setting [1] was found to be 2.68 ± 1.11 µM. `CCN(CC)c1ncnc2c1nc(NC)n2[C@@H]1O[C@H](COP(=O)(O)OP(=O)(O)C(Br)(Br)P(=O)(O)O)[C@@H](O)[C@H]1O` [Compound 35, (Dibromo((((((2R,3S,4R,5R)-5-(6-(diethylamino)-8-(methylamino)-9H-purin-9-yl)-3,4-di-hydroxytetrahydrofuran-2-yl)methoxy)(hydroxy)phosphoryl)-oxy)(hydroxy)phosphoryl)methyl)phosphonic Acid]: the Ki under setting [1] was roughly 10 µM. Also, the inhibition at 10 µM under setting [3] was found to be 59%. In the case of `CCCN(CC)c1ncnc2c1ncn2[C@@H]1O[C@H](COP(=O)(O)OP(=O)(O)C(Br)(Br)P(=O)(O)O)[C@@H](O)[C@H]1O` [Compound 28, (Dibromo((((((2R,3S,4R,5R)-5-(6-(ethyl(propyl)amino)-9H-purin-9-yl)-3,4-dihydroxytetra-hydrofuran-2-yl)methoxy)-(hydroxy)phosphoryl)oxy)(hydroxy)phosphoryl)methyl)-phosphonic Acid], the inhibition constant Ki under setting [1] came to 2.22 ± 0.02 µM. Turning to `Nc1ncnc2c1ncn2[C@@H]1O[C@H](COP(=O)(O)OP(=O)(O)C(Cl)(Cl)P(=O)(O)O)[C@@H](O)[C@H]1O` [Compound 39, (((((((2R,3S,4R,5R)-5-(6-Amino-9H-purin-9-yl)-3,4-dihydroxytetrahydrofuran-2-yl)methoxy)-(hydroxy)-phosphoryl)oxy)(hydroxy)phosphoryl)dichloromethyl)-phosphonic Acid], the “IC50 (in words)” value is reported as “low micromolar range”. Also, the Ki under setting [1] came to 9.53 ± 1.46 µM. Further, the “fold less potent than dibromo-derivative 38 at CD39” value under setting [2] is “about 2 fold”. On to `CCCCNc1nc2c(N(C)C)ncnc2n1[C@@H]1O[C@H](COP(=O)(O)OP(=O)(O)C(Br)(Br)P(=O)(O)O)[C@@H](O)[C@H]1O` [Compound 34, (Dibromo((((((2R,3S,4R,5R)-5-(8-(butylamino)-6-(dimethylamino)-9H-purin-9-yl)-3,4-di-hydroxytetrahydrofuran-2-yl)methoxy)(hydroxy)-phosphoryl)oxy)(hydroxy)phosphoryl)methyl)-phosphonic Acid], for which, under setting [1], the inhibitory constant (Ki) was roughly 10 µM. Under setting [3], the inhibition at 10 µM is 54%.

With `CN(C)c1ncnc2c1ncn2[C@@H]1O[C@H](COP(=O)(O)OP(=O)(O)C(Br)(Br)P(=O)(O)O)[C@@H](O)[C@H]1O` [Compound 24, (Dibromo((((((2R,3S,4R,5R)-5-(6-(dimethylamino)-9H-purin-9-yl)-3,4-dihydroxytetrahydro-furan-2-yl)methoxy)-(hydroxy)phosphoryl)oxy)(hydroxy)phosphoryl)methyl)-phosphonic Acid], the Ki under setting [1] was found to be 40.1 ± 7 µM. The “fold decrease in CD39 potency compared to I” value under setting [2] is given as 41 fold. For `CCN(C)c1ncnc2c1ncn2[C@@H]1O[C@H](COP(=O)(O)OP(=O)(O)C(Br)(Br)P(=O)(O)O)[C@@H](O)[C@H]1O` [Compound 25, (Dibromo((((((2R,3S,4R,5R)-5-(6-(ethyl(methyl)amino)-9H-purin-9-yl)-3,4-dihydroxytetra-hydrofuran-2-yl)methoxy)-(hydroxy)phosphoryl)oxy)(hydroxy)phosphoryl)methyl)-phosphonic Acid] the same measures were 6.48 ± 2.6 µM and “about 7 fold”. For the molecule `CCCCSc1nc2c(NC)ncnc2n1[C@@H]1O[C@H](COP(=O)(O)OP(=O)(O)C(Br)(Br)P(=O)(O)O)[C@@H](O)[C@H]1O` [Compound 36, (Dibromo((((((2R,3S,4R,5R)-5-(8-(butylthio)-6-(methylamino)-9H-purin-9-yl)-3,4-dihydroxy-tetrahydrofuran-2-yl)methoxy)(hydroxy)phosphoryl)oxy)-(hydroxy)phosphoryl)methyl)phosphonic Acid], the inhibitory constant (Ki) under setting [1] is greater than 10 µM. Also, the inhibition at 10 µM under setting [3] was determined as 39%. Consider `O=P(O)(OC[C@H]1O[C@@H](n2cnc3c(NCc4ccccc4)ncnc32)[C@H](O)[C@@H]1O)OP(=O)(O)C(Br)(Br)P(=O)(O)O` [Compound 29, (((((((2R,3S,4R,5R)-5-(6-(Benzylamino)-9H-purin-9-yl)-3,4-dihydroxytetrahydrofuran-2-yl)methoxy)(hydroxy)-phosphoryl)oxy)(hydroxy)phosphoryl)dibromomethyl)-phosphonic Acid], for which the “CD39 inhibition (in words)” value is given as “abolishment of the CD39-inhibiting activity”. For the same molecule, the inhibitory constant (Ki) under setting [1] is greater than 10 µM. The inhibition at 10 µM under setting [3] was determined as 4%.
